Marks after values point to notes of the source that are not given here.
Columns and labels:
[1] = tested on: rat acute myocardial infarction model; assay: Rat left coronary artery-ligated myocardial infarction model; format: in vivo
Description: Male SD rats (Japan SLC) were fixed in the dorsal position with ether anesthesia, and subjected to thoracotomy by vertical incision along the left sternal line according to the method by Selye H. et al. (Angiology, 1960, 11, 398) to expose the heart. The left coronary artery was ligated using a silk thread (No. 4) at 1-2 mm from the basal part, the heart was put back in place and quickly deaerated, and the chest was closed. The rat was confirmed to have myocardial infarction with an electrocardiograph (NIHON KOHDEN). The rat was exsanguinated to death from the abdominal aorta 24 hr after ligation. The heart was removed, and a circular cross-section at the center thereof was incubated in a solution of 1% 2,3,5-triphenyltetrazolium chloride (hereinafter to be indicated as “TTC”) in 0.1 M phosphate buffer for 20 min under light shielding. Thereafter, the section was fixed with formalin buffer, traced, and the areas of infarction region (TTC unstained region) and left ventricle were calculated. Immediately after coronary artery ligation, compound A was suspended in 1% CMC solution and orally administered to the rat.
The inhibitory rate was calculated by the following formula: [formula] [formula]
In addition, compound A (1 mg/kg) was orally administered at 15 min, 1 hr and 3 hr after ligation, and infarction inhibitory effect was examined.

p22^Phox = assay: Effect on p22^Phox expression induced by oxidized LDL in HUVEC (RT-PCR); format: cell-based, human
Experimental: HUVEC was seeded in a 24-well collagen-coated plate. Compound A was added, and oxidized LDL (100 μg/mL) prepared from the blood obtained from normal healthy volunteers was added 24 hr later.
At 24 hr after the oxidized LDL addition, total RNA was […] extracted using MgExtractor (TOYOBO) and DNase I treatment (Nippon gene) was conducted.
The concentration of the total RNA was calculated by measuring absorbance (OD260) of a fraction therefrom.
Using the obtained total RNA (100 ng), RT (reverse transcription) reaction (ABI) was carried out to synthesis cDNA.
Using the synthesized cDNA (10 μL), PCR (polymerase chain reaction) was carried out (ABI), and expression amounts of p22^Phox which is a major component of NAD(P)H oxidase, and β-actin as an internal standard were measured.
The expression amount of p22^Phox was standardized to the expression amount of β-actin and expressed based on the expression amount of (p22^Phox)/( β-actin) of normal as 100%.

[2] = tested on: atherosclerosis rabbit model; assay: Atherosclerosis inhibitory effect in cholesterol-fed rabbits; format: in vivo; details: for lipid-deposition area (%), abdominal aorta / lipid-deposition area (%), thoracic aorta: 12 weeks, 0.67% cholesterol feed; for lipid-deposition area (%), abdominal aorta / lipid-deposition area (%), thoracic aorta / Plasma lipid concentration TC: mean ± standard error; for Plasma lipid concentration TC: 12 weeks from cholesterol-loading
Experimental: A 0.67% cholesterol-containing feed (40 g/kg/day) and compound A were given to male NZW rabbits (Japan SLC) for 12 weeks. Blood was drawn from the auricular vein using a heparinized capillary tube, and centrifuged at 3000 rpm for 10 min. The total cholesterol (hereinafter to be indicated as “TC”) value of the obtained plasma was measured by an enzyme assay using a measurement kit.
After 12 weeks, the carotid artery was peeled and removed with pentobarbital anesthesia, and exsanguinated to remove the aorta. The obtained carotid artery was immediately placed in Krebs buffer, the surrounding tissues were carefully removed, and the ring specimen was prepared trying not to damage endothelial cells. Then, the ring specimen was suspended in a Magnus tank filled with Krebs buffer at 37° C. under an air flow of 95% O2-5% CO2 mixed gas. The experiment was conducted after reaching a steady state by loading 2 g tension.
For the measurement of a relaxation response, the specimen was contracted in advance with norepinephrine, and when the contraction reached steady state, acetylcholine was cumulatively added. The vascular relaxation rate was determined based on the contraction induced by 10 μM norepinephrine as 100%.
Using a transducer (NIHON KOHDEN), tension was measured isometrically. The significant difference was tested for by variance analysis with two-way layout (Dunnett's method) relative to the control group.
The removed aorta was divided into arch aorta, thoracic aorta and abdominal aorta, fixed with 10% formalin buffer, photographed, the area of the lipid adhered to the aorta was measured and the proportion of the area of the lipid-deposition area relative to the area of aorta was determined.

leukocyte NADPH oxidase = assay: Effect on leukocyte NADPH oxidase (PMA-stimulated lucigenin chemiluminescence); format: cell-based, rat
Experimental: Blood was drawn from the abdominal aorta of normal male Wister rats (Japan SLC) and immediately mixed with an ice-cold lysis buffer at 42 mL of the buffer per 3 mL of the blood.
After 5 min, the mixture was centrifuged at 4° C., 1100 rpm for 5 min. The precipitate was suspended in an ice-cold Lysis buffer, and centrifuged again at 4° C., 1100 rpm for 5 min. This operation was repeated 3 times to obtain leukocytes. The obtained leukocytes were suspended in Krebs-Hepes buffer and the number of the cells was adjusted to 1×10^6/ml. 0.25 mM Lucigenin and the test agent were added, Phorbol 12-myristate 13-acetate (hereinafter to be indicated as “PMA”, SIGMA) was further added, and the chemiluminescence value was measured at 37° C. for 10 min.
The inhibitory rate (%) was calculated by the following formula: inhibitory rate (%)=100−[(A−C)/(B−C))×[…] wherein A is the total chemiluminescence value of the leukocyte suspension with the addition of the test compound, B is the total chemiluminescence value of the leukocyte suspension (control) without addition of the test compound, and C is the total chemiluminescence value of the leukocyte suspension without stimulation with PMA.

[3] = tested on: rabbit chronic myocardial infarction (heart failure) model; assay: Rabbit chronic myocardial infarction (heart failure) model; format: in vivo
Experimental: Male NZW rabbits (Japan SLC) were fixed in the dorsal position and subjected to thoracotomy with pentobarbital anesthesia. A silk thread (No. 4) was applied to the basal part of the left coronary artery, a polyethylene tube (length 1 cm) was further applied and the left coronary artery was ligated using a thread. After 2 hr from the ligation, the thread on the polyethylene tube was cut to reperfusion. At 2 hr from the reperfusion, compound A (1 mg/kg) was administered once, and administered once a day for 12 weeks. After 12 weeks, an excess pentobarbital was administered, the heart was removed, and the weight thereof and the thickness of the left ventricle center wall were measured.
The compound was evaluated by the mortality rate, heart weight and thickness of left ventricle.

[4] = 0.1 mg/kg oral immediately after coronary artery ligation, 24 hr
[5] = 0.3 mg/kg oral immediately after coronary artery ligation, 24 hr
[6] = 1 mg/kg oral immediately after coronary artery ligation, 24 hr
[7] = 1 mg/kg oral, 15 min after ligation
[8] = 1 mg/kg oral, 1 hr after ligation
[9] = 1 mg/kg oral, 3 hr after ligation
[10] = 1 mg/kg once a day for 12 weeks
[11] = 1 mg/kg once a day, deaths/animals

C[C@@H](Nc1nnc(-c2ccccc2)c2ccccc12)C1CCCCC1.O=C(O)/C=C\C(=O)O [compound A]
infarction rate (%) [1, 4]: 40%
inhibitory rate (%) of infarction [1, 4]: 0%
infarction rate (%) [1, 5]: 17.2** %
inhibitory rate (%) of infarction [1, 5]: 57** %
infarction rate (%) [1, 6]: 6.3** %
inhibitory rate (%) of infarction [1, 6]: 84.3** %
infarction rate (%) [1, 7]: 10.5** %
inhibitory rate (%) of infarction [1, 7]: 73.8%
infarction rate (%) [1, 8]: 16.7** %
inhibitory rate (%) of infarction [1, 8]: 58.3%
infarction rate (%) [1, 9]: 29.3* %
inhibitory rate (%) of infarction [1, 9]: 26.8%
p22^phox expression ((p22^Phox)/(β-actin), normal as 100%) (p22^Phox; oxidized LDL 100 μg/mL + 0.1 μM compound, mean ± standard error): 116.64 ± 16.61 %
p22^Phox expression relative to the normal group (p22^Phox; oxidized LDL addition): 1.2 fold
lipid-deposition area (%), abdominal aorta ([2]; 1 mg/kg): 25.4 ± 6.2 %
lipid-deposition area (%), thoracic aorta ([2]; 1 mg/kg): 62.1 ± 10.0 %
Plasma lipid concentration TC ([2]; 1 mg/kg): 1895.3 ± 244.6 mg/dL
lipid-deposition area (%), abdominal aorta ([2]; 10 mg/kg): 18.2 ± 2.2 %
lipid-deposition area (%), thoracic aorta ([2]; 10 mg/kg): 56.5 ± 10.5 %
Plasma lipid concentration TC ([2]; 10 mg/kg): 1887.9 ± 103.9 mg/dL
endothelial-dependent relaxation response of carotid artery by Ach ([2]; Ach 10^−8 to 10^−5 M, FIG. 1, result in words): significantly improved as compared to the control group
inhibitory rate (%), leukocyte NADPH oxidase (leukocyte NADPH oxidase; 1 μM, PMA-stimulated rat leukocytes, mean ± standard error): 2.4 ± 13.6%
inhibitory effect on leukocyte NADPH oxidase (leukocyte NADPH oxidase; result in words): did not show an inhibitory effect on leukocyte NADPH oxidase
mortality rate ([3]; 1 mg/kg once a day): 8%
heart weight (g/kg body weight) [3, 10]: 2.05* g/kg body weight
thickness (mm) of left ventricle [3, 10]: 1.17* mm
cumulative mortality, 2 weeks after ligation [3, 11]: 0/12
cumulative mortality, 4 weeks after ligation [3, 11]: 1/12

Source: patent publication US20070082910A1, “Specific nad(p)h oxidase inhibitor” (Mitsubishi Pharma Corporation, priority 2003, published 2007)
